According to US6319894A, “Complexes and combinations of fetuin with therapeutic agents” (The Picower Institute for Medical Research, priority 1997, dated 2001):
Where a name gives a salt, the structure may show the parent alone. Read-outs that look alike come from different tables or passages of the source.

Columns and labels:
[1] = tested on: LPS-stimulated RAW 264.7 cells (LPS-inducible arginase II activity); conditions: pre-treatment; prior studies; cited from earlier work
[2] = tested on: LPS-stimulated RAW 264.7 cells (inducible nitric oxide synthase, iNOS); conditions: pre-treatment; prior studies; cited from earlier work
[3] = tested on: mice, endotoxin (LPS) lethality; conditions: in vivo; background statement; cited from earlier work
[4] = tested on: LPS-stimulated RAW 264.7 cells (TNF production); conditions: pre-treatment; prior studies; cited from earlier work
[5] = Charge at physiological pH; format: physicochemical
NO production = conditions: background statement; cited from earlier work
rat paw edema = conditions: carageenan administration; background statement; cited from earlier work
[6] = tested on: human peripheral blood mononuclear cells; conditions: background statement, cited from earlier work
[7] = tested on: LPS-stimulated RAW 264.7 cells (IL-1 β, IL-6, MIP-1α, and MIP-1β); conditions: pre-treatment; prior studies; cited from earlier work
[8] = tested on: LPS-stimulated RAW 264.7 cells (TNF production); assay: TNF production (ELISA) in LPS-stimulated RAW 264.7 cells; format: cell-based, murine; conditions: for inhibition at 2.5 µM: RAW264.7, 4 h
Procedure: (§1) Typically, cultures were maintained in 150-mm plates with 30 mls culture medium until they reached 80-90% confluence, and were then subjected to different experimental protocols. […] The incubation was continued for another 24 hours before subjecting the cultures to further experiments.
(§2) LPS (endotoxin) was sonicated for 10 minutes and added to culture media to achieve the desired final concentration, typically 100 ng/ml.

[9] = tested on: LPS-stimulated RAW 264.7 cells (LPS-inducible arginase II activity); assay: Urea production (LPS-inducible arginase II functional assay) in LPS-stimulated RAW 264.7 cells; format: cell-based, murine
Procedure: as §1, §2
Accumulation of urea in the cell culture medium was measured as a functional assay of LPS-inducible arginase II activity. […] The optical density at 535 nm was measured, and urea concentrations were calculated by comparison with OD535 of standard dilutions of urea prepared in culture medium.
Whole-cell lysate preparations were fractionated by sequential ultrafiltration over Amicon Centricon®-100, and Centricon®-30 filters, respectively.

arginine uptake = assay: Assay for arginine uptake; format: cell-based
[10] = tested on: LPS-stimulated RAW 264.7 cells (inducible nitric oxide synthase, iNOS); assay: NO / nitrite production (Griess reaction, iNOS activity) in LPS-stimulated RAW 264.7 cells; format: cell-based, murine; conditions: for augmentation of CNI-1493 activity (nitrite production): glycoprotein 2.5 μg/ml, CNI-1493 2.0 μM, FIG. 13
Procedure: as §1, §2
Inducible nitric oxide synthase activity (iNOS) was assayed indirectly by measuring NO^2- production. NO^2- was measured by a colorimetric assay based on the Griess reaction. […] The optical density was read at 560 nm after 10 min, and NO^2- concentration was determined with reference to a standard curve by using concentrations of 1.5 to 50 μM sodium nitrite in culture medium.

[11] = tested on: LPS-stimulated human PBMCs (TNF production); assay: TNF production in LPS-stimulated human PBMCs; format: cell-based; conditions: CNI-1493 50 nM, FIG. 11; for enhancement of CNI-1493 activity (TNF suppression in PBMCs): fetuin 1.0 μg/ml or 10 μg/ml
[12] = tested on: LPS-challenged mice (serum TNF); assay: Serum TNF levels in LPS-challenged mice; format: in vivo; conditions: fetuin 20 mg/kg pretreatment 1 hour; CNI-1493 2.5 mg/kg ip; LPS 13 mg/kg; serum at four hours; FIG. 12
Procedure: The fetuin pretreatment dose was 20 mg/kg.

[13] = LPS-activated macrophages, CNI-1493 alone
[14] = non-responsive cultures (≥56 hours after 1:4 split), CNI-1493 up to 5 μM

Molecule: CC(=NNC(=N)N)c1cc(NC(=O)CCCCCCCCC(=O)Nc2cc(C(C)=NNC(=N)N)cc(C(C)=NNC(=N)N)c2)cc(C(C)=NNC(=N)N)c1 [CNI-1493, N,N'-bis[3,5-bis[1-(aminoiminomethyl)hydrazonoethyl]phenyl]decanediamide tetrahydrochloride]
- suppression of LPS-stimulated urea production [1]: suppresses
- suppression of LPS-stimulated NO production [2]: suppresses
- protection against lethal effects of endotoxin [3]: protects mice against lethal effects of endotoxin
- suppression of LPS-stimulated TNF production [4]: suppresses
- charge at physiological pH [5]: four positive charges
- IC50 (NO production): 5 µM
- anti-inflammatory effect, paw edema and inflammation (rat paw edema): suppression of rat paw edema and inflammation
- inhibition of TNF translation [6]: inhibits TNF (tumor necrosis factor) translation
- suppression of production of IL-1, IL-6, MIP-1α and MIP-1β ([6]; human peripheral blood mononuclear cells): suppresses the production of IL-1, IL-6, MIP-1α and MIP-1β
- suppression of several other cytokines such as IL-1 β, IL-6, MIP-1α, and MIP-1β [7]: suppresses
- suppression of TNF-α production [8, 13]: dose-dependent suppression
- inhibition at 2.5 µM ([8]; Mus musculus, read-out: suppression of TNF accumulation): < 10%
- inhibition at 2.5 µM ([8]; Mus musculus, read-out: suppression of TNF production): > 90%
- IC50 ([8]; Mus musculus, RAW264.7, responsive cultures, stated as approximately the same as the urea IC50, read-out: IC50 with respect to TNF production): < 2 µM
- inhibition of TNF levels in culture supernatants ([8]; low serum precultured (non-responsive) cells, FIG. 1): not responsive
- effect on level of TNF [8, 14]: not reduced
- suppression of urea production [9, 13]: dose-dependent suppression of urea production
- inhibition at 5 µM ([9]; Mus musculus, RAW264.7, 20 h, read-out: decrease in urea accumulation compared to control): > 95%
- inhibition at 2.5 µM ([9]; Mus musculus, RAW264.7, read-out: suppression of urea): > 50%
- inhibition at 2.5 µM ([9]; Mus musculus, RAW264.7, read-out: suppression of urea accumulation): < 10%
- IC50 ([9]; Mus musculus, RAW264.7, responsive cultures, estimated, read-out: IC50 (concentration of 50% inhibition) with respect to urea production): < 2 µM
- effect on level of urea [9, 14]: not reduced
- urea concentration, effect of CNI-1493 alone ([9]; partially non-responsive cells, 2.5 μM CNI-1493, FIG. 9): small degree of inhibitory activity
- IC50 (arginine uptake): ~10 µM
- suppression of NO production [10, 13]: dose-dependent suppression
- inhibition at 2.5 µM ([10]; Mus musculus, RAW264.7, read-out: suppression of NO): > 50%
- inhibition at 2.5 µM ([10]; Mus musculus, RAW264.7, read-out: suppression of NO accumulation): < 10%
- IC50 ([10]; Mus musculus, RAW264.7, responsive cultures, stated as approximately the same as the urea IC50, read-out: IC50 with respect to NO production): < 2 µM
- effect on level of NO [10, 14]: not reduced
- suppression of TNF production in PBMCs by CNI-1493 [11]: active in suppressing TNF production

Molecule: α1-acid glycoprotein: other glycoprotein, net negatively charged at physiological pH
- augmentation of CNI-1493 activity (nitrite production) [10]: only fetuin was effective in augmenting CNI-1493 therapeutic activity

B1: asialofetuin: fetuin glycoprotein treated to remove terminal sialic acid residues (protein, UniProt P12763 19-359, looked up)
Alpha-2-HS-glycoprotein: IPLDPVAGYKEPACDDPDTEQAALAAVDYINKHLPRGYKHTLNQIDSVKVWPRRPTGEVYDIEIDTLETTCHVLDPTPLANCSVRQQTQHAVEGDCDIHVLKQDGQFSVLFTKCDSSPDSAEDVRKLCPDCPLLAPLNDSRVVHAVEVALATFNAESNGSYLQLVEISRAQFVPLPVSVSVEFAVAATDCIAKEVVDPTKCNLLAEKQYGFCKGSVIQKALGGEDVRVTCTLFQTQPVIPQPQPDGAEAEAPSAVPDAAGPTPSAAGPPVASVVVGPSVVAVPLPLHRAHYDLRHTFSGVASVESSSGEAFHVGKTPIVGQPSIPGGPVRLCPGRIRYFKI
modifications: desialylated
notes: fetuin glycoprotein treated to remove terminal sialic acid residues
- enhancement of CNI-1493 activity (suppression of urea production) ([9]; non-responsive cultures, glycoprotein 1.0 and 2.5 μg/ml, CNI-1493 2.5 μM, FIG. 10): not nearly as active as fetuin

B2: fetuin: globular protein of about 60-70 kDa, containing 20-25% carbohydrate (protein, UniProt P12763 19-359, looked up)
Alpha-2-HS-glycoprotein: B1 Alpha-2-HS-glycoprotein
- augmentation of CNI-1493 activity (nitrite production) [10]: only fetuin was effective in augmenting CNI-1493 therapeutic activity

B3: bovine fetuin (Sigma): globular 341-amino acid polypeptide with six internal disulfide bonds and three N-linked and two O-linked oligosaccharide chains (protein, UniProt P12763 19-359, looked up)
Alpha-2-HS-glycoprotein: B1 Alpha-2-HS-glycoprotein
- enhancement of CNI-1493 activity (suppression of serum TNF) [12]: greatly enhanced CNI-1493 therapeutic activity
- enhancement of CNI-1493 activity (TNF suppression in PBMCs) [11]: enhanced, in a dose-dependent fashion

B4: human fetuin glycoprotein: human fetuin glycoprotein (commercially prepared, Sigma) (protein)
chain: MKSLVLLLCLAQLWGCHSAPHGPGLIYRQPNCDDPETEEAALVAIDYINQNLPWGYKHTLNQIDEVKVWPQQPSGELFEIEIDTLETTCHVLDPTPVARCSVRQLKEHAVEGDCDFQLLKLDGKFSVVYAKCDSSPDSAEDVRKVCQDCPLLAPLNDTRVVHAAKAALAAFNAQNNGSNFQLEEISRAQLVPLPPSTYVEFTVSGTDCVAKEATEAAKCNLLAEKQYGFCKATLSEKLGGAEVAVTCTVFQTQPVTSQPQPEGANEAVPTPVVDPDAPPSPPLGAPGLPPAGSPPDSHVLLAAPPGHQLHRAHYDLRHTFMGVVSLGSPSGEVSHPRKTRTVVQPSVGAAAGPVVPPCPGRIRHFKV
- enhancement of CNI-1493 activity (TNF suppression in PBMCs) [11]: enhanced

B5: glycophorin: other glycoprotein, net negatively charged at physiological pH (protein, UniProt P02724 20-150, looked up)
Glycophorin-A: LSTTEVAMHTSTSSSVTKSYISSQTNDTHKRDTYAATPRAHEVSEISVRTVYPPEEETGERVQLAHHFSEPEITLIIFGVMAGVIGTILLISYGIRRLIKKSPSDVKPLPSPDTDVPLSSVEIENPETSDQ
- augmentation of CNI-1493 activity (nitrite production) [10]: only fetuin was effective in augmenting CNI-1493 therapeutic activity
